Columns and labels:
Format in all cases: in vivo
[1] = test system: corn (Zea mays); assay: Test A postemergence application, visual injury rating; conditions: Zea mays, post-emergence, 240 h, 0 to 100 scale, 0 no effect, 100 complete control, read-out: Corn plant response rating; for plant injury at 125 g/ha: 125 g ai/ha; for plant injury at 500 g/ha: 500 g ai/ha
Outline: (§1)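 Compounds in a surfactant-containing solvent were applied as a directed soil spray preemergence, or postemergence to plants 2-10 cm tall at the one- to two-leaf stage, in loam-sand blend. After about 10 d in the greenhouse, injury was rated visually against untreated controls on a 0-100 scale (100 = complete control).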

[2] = test system: pigweed (Amaranthus retroflexus); assay: as above; conditions: Amaranthus retroflexus, post-emergence, 240 h, 0 to 100 scale, 0 no effect, 100 complete control, read-out: Pigweed plant response rating; for pest or weed control at 125 g/ha: 125 g ai/ha; for pest or weed control at 500 g/ha: 500 g ai/ha
Outline: as §1

[3] = test system: barnyardgrass (Echinochloa crus-galli); assay: as above; conditions: Echinochloa crus-galli, post-emergence, 240 h, 0 to 100 scale, 0 no effect, 100 complete control, read-out: Barnyardgrass plant response rating; for pest or weed control at 125 g/ha: 125 g ai/ha; for pest or weed control at 500 g/ha: 500 g ai/ha
Outline: as §1

[4] = test system: ryegrass, It. (Italian ryegrass, Lolium multiflorum); assay: as above; conditions: Lolium multiflorum, post-emergence, 240 h, 0 to 100 scale, 0 no effect, 100 complete control, read-out: Ryegrass, It. plant response rating; for pest or weed control at 125 g/ha: 125 g ai/ha; for pest or weed control at 500 g/ha: 500 g ai/ha
Outline: as §1

[5] = test system: galium (catchweed bedstraw, Galium aparine); assay: as above; conditions: Galium, post-emergence, 240 h, 0 to 100 scale, 0 no effect, 100 complete control, read-out: Galium plant response rating; for pest or weed control at 125 g/ha: 125 g ai/ha; for pest or weed control at 500 g/ha: 500 g ai/ha
Outline: as §1

[6] = test system: ragweed (common ragweed, Ambrosia elatior); assay: as above; conditions: Ambrosia artemisiifolia, post-emergence, 240 h, 0 to 100 scale, 0 no effect, 100 complete control, read-out: Ragweed plant response rating; for pest or weed control at 125 g/ha: 125 g ai/ha; for pest or weed control at 500 g/ha: 500 g ai/ha
Outline: as §1

[7] = test system: blackgrass (Alopecurus myosuroides); assay: as above; conditions: Alopecurus myosuroides, post-emergence, 240 h, 0 to 100 scale, 0 no effect, 100 complete control, read-out: Blackgrass plant response rating; for pest or weed control at 125 g/ha: 125 g ai/ha; for pest or weed control at 500 g/ha: 500 g ai/ha
Outline: as §1

[8] = test system: foxtail, giant (giant foxtail, Setaria faberii); assay: as above; conditions: Setaria faberi, post-emergence, 240 h, 0 to 100 scale, 0 no effect, 100 complete control, read-out: Foxtail, Giant plant response rating; for pest or weed control at 125 g/ha: 125 g ai/ha; for pest or weed control at 500 g/ha: 500 g ai/ha
Outline: as §1

[9] = test system: kochia (Kochia scoparia); assay: as above; conditions: Bassia scoparia, post-emergence, 240 h, 0 to 100 scale, 0 no effect, 100 complete control, read-out: Kochia plant response rating; for pest or weed control at 125 g/ha: 125 g ai/ha; for pest or weed control at 500 g/ha: 500 g ai/ha
Outline: as §1

[10] = test system: wheat (Triticum aestivum); assay: as above; conditions: Triticum aestivum, post-emergence, 240 h, 0 to 100 scale, 0 no effect, 100 complete control, read-out: Wheat plant response rating; for plant injury at 125 g/ha: 125 g ai/ha; for plant injury at 500 g/ha: 500 g ai/ha
Outline: as §1

[11] = test system: pigweed (Amaranthus retroflexus); assay: Test A preemergence, directed soil spray, visual injury rating; conditions: Amaranthus retroflexus, pre-emergence, 240 h, 0 is no effect, 100 is complete control, read-out: Plant response rating (0 to 100 scale), Pigweed; for pest or weed control at 125 g/ha: 125 g ai/ha; for pest or weed control at 500 g/ha: 500 g ai/ha
Outline: as §1

[12] = test system: barnyardgrass (Echinochloa crus-galli); assay: as above; conditions: Echinochloa crus-galli, pre-emergence, 240 h, 0 is no effect, 100 is complete control, read-out: Plant response rating (0 to 100 scale), Barnyardgrass; for pest or weed control at 125 g/ha: 125 g ai/ha; for pest or weed control at 500 g/ha: 500 g ai/ha
Outline: as §1

[13] = test system: ryegrass, It. (Italian ryegrass, Lolium multiflorum); assay: as above; conditions: Lolium multiflorum, pre-emergence, 240 h, 0 is no effect, 100 is complete control, read-out: Plant response rating (0 to 100 scale), Ryegrass, It.; for pest or weed control at 125 g/ha: 125 g ai/ha; for pest or weed control at 500 g/ha: 500 g ai/ha
Outline: as §1

[14] = test system: ragweed (common ragweed, Ambrosia elatior); assay: as above; conditions: Ambrosia artemisiifolia, pre-emergence, 240 h, 0 is no effect, 100 is complete control, read-out: Plant response rating (0 to 100 scale), Ragweed; for pest or weed control at 125 g/ha: 125 g ai/ha; for pest or weed control at 500 g/ha: 500 g ai/ha
Outline: as §1

[15] = test system: foxtail, giant (giant foxtail, Setaria faberii); assay: as above; conditions: Setaria faberi, pre-emergence, 240 h, 0 is no effect, 100 is complete control, read-out: Plant response rating (0 to 100 scale), Foxtail, Giant; for pest or weed control at 125 g/ha: 125 g ai/ha; for pest or weed control at 500 g/ha: 500 g ai/ha
Outline: as §1

[16] = test system: kochia (Kochia scoparia); assay: as above; conditions: Bassia scoparia, pre-emergence, 240 h, 0 is no effect, 100 is complete control, read-out: Plant response rating (0 to 100 scale), Kochia; for pest or weed control at 125 g/ha: 125 g ai/ha; for pest or weed control at 500 g/ha: 500 g ai/ha
Outline: as §1

[17] = test system: ducksalad (Heteranthera limosa); assay: Test B flooded paddy test, visual rating; conditions: Heteranthera limosa, 360 h; Flood, 250 g ai/ha, applied to paddy water, rated after 13 to 15 d; read-out: Ducksalad plant response rating (0 to 100 scale, 0 is no effect, 100 is complete control)
Outline: (§2)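 Plants grown to the 2-leaf stage. At treatment, pots were flooded to 3 cm above the soil, compound was applied directly to the paddy water, and that depth was held throughout. After 13 to 15 d in the greenhouse, response was rated visually against controls on a 0 (no effect) to 100 (complete control) scale.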

[18] = test system: rice (Oryza sativa); assay: Test B flooded paddy test, visual rating; conditions: Oryza sativa, 360 h; Flood, 250 g ai/ha, applied to paddy water, rated after 13 to 15 d; read-out: Rice plant response rating (0 to 100 scale, 0 is no effect, 100 is complete control)
Outline: as §2

[19] = test system: sedge, umbrella (small-flower umbrella sedge, Cyperus difformis); assay: Test B flooded paddy test, visual rating; conditions: Cyperus difformis, 360 h; Flood, 250 g ai/ha, applied to paddy water, rated after 13 to 15 d; read-out: Sedge, Umbrella plant response rating (0 to 100 scale, 0 is no effect, 100 is complete control)
Outline: as §2

SMILES | plant injury at 125 g/ha [1] [%] | plant injury at 500 g/ha [1] [%] | pest or weed control at 125 g/ha [2] [%] | pest or weed control at 500 g/ha [2] [%] | pest or weed control at 125 g/ha [3] [%] | pest or weed control at 500 g/ha [3] [%] | pest or weed control at 125 g/ha [4] [%] | pest or weed control at 500 g/ha [4] [%] | pest or weed control at 125 g/ha [5] [%] | pest or weed control at 500 g/ha [5] [%] | pest or weed control at 125 g/ha [6] [%] | pest or weed control at 500 g/ha [6] [%] | pest or weed control at 125 g/ha [7] [%] | pest or weed control at 500 g/ha [7] [%] | pest or weed control at 125 g/ha [8] [%] | pest or weed control at 500 g/ha [8] [%] | pest or weed control at 125 g/ha [9] [%] | pest or weed control at 500 g/ha [9] [%] | plant injury at 125 g/ha [10] [%] | plant injury at 500 g/ha [10] [%] | further results
Cc1nn(C)c(=O)c(-c2cccc3snc(C)c23)c1O [Compound 25, 5-hydroxy-2,6-dimethyl-4-(3-methyl-1,2-benzisothiazol-4-yl)-3 (2H)-pyridazinone] | 0 | 20 | 90 | 90 | 20 | 40 | 20 | 70 | 80 | 90 | 70 | 90 | 20 | 30 | 30 | 80 | 100 | 100 | 20 | 30 | pest or weed control at 125 g/ha [11]: 80%; pest or weed control at 500 g/ha [11]: 100%; pest or weed control at 125 g/ha [12]: 0%; pest or weed control at 500 g/ha [12]: 40%; pest or weed control at 125 g/ha [13]: 0%; pest or weed control at 500 g/ha [13]: 30%; pest or weed control at 125 g/ha [14]: 40%; pest or weed control at 500 g/ha [14]: 70%; pest or weed control at 125 g/ha [15]: 30%; pest or weed control at 500 g/ha [15]: 80%; pest or weed control at 125 g/ha [16]: 100%; pest or weed control at 500 g/ha [16]: 100%; pest or weed control at 250 g/ha [17]: 0%; plant injury at 250 g/ha [18]: 0%; pest or weed control at 250 g/ha [19]: 0%
Cc1ccc2sccc2c1-c1c(O)c(C)nn(C)c1=O [Compound 29, 5-hydroxy-2,6-dimethyl-4-(5-methylbenzo[b]thien-4-yl)-3(2H)-pyridazinone] | 20 | 50 | 90 | 100 | 20 | 70 | 100 | 90 | 90 | 100 | 80 | 80 | 70 | 80 | 20 | 80 | 90 | 100 | 20 | 30 | pest or weed control at 125 g/ha [11]: 40%; pest or weed control at 500 g/ha [11]: 100%; pest or weed control at 125 g/ha [12]: 10%; pest or weed control at 500 g/ha [12]: 90%; pest or weed control at 125 g/ha [13]: 90%; pest or weed control at 500 g/ha [13]: 100%; pest or weed control at 125 g/ha [14]: 30%; pest or weed control at 500 g/ha [14]: 90%; pest or weed control at 125 g/ha [15]: 10%; pest or weed control at 500 g/ha [15]: 90%; pest or weed control at 125 g/ha [16]: 20%; pest or weed control at 500 g/ha [16]: 90%; pest or weed control at 250 g/ha [17]: 0%; plant injury at 250 g/ha [18]: 0%; pest or weed control at 250 g/ha [19]: 0%
